{"source": "patent US10947252B2", "about": "“Inhibitors of KEAP1-Nrf2 protein-protein interaction” (Janssen Pharmaceutica NV, priority 2018, dated 2021)", "tested_on": "Glo-Response ARE-luc2P HEK293 cell line", "experiment": "ARE luciferase reporter cell-based assay;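 also: luciferase signal tracks Nrf2 activation of the ARE once compounds disrupt KEAP1-Nrf2 binding, read with One-Glo reagent, DMSO serving as low control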", "conditions": "average of results obtained", "note": "pEC50: −log10 of the molar value."}
{"smiles": "Cc1ccc([C@H](CC(=O)O)c2ccn3c(C(F)(F)F)nnc3c2C)cc1CN1C[C@@H]2CCCCN2c2nc(C(N)=O)ccc2S1(=O)=O", "note": "(relative stereo) [Example 203, (*S)-3-(3-(((*S)-2-Carbamoyl-5,5-dioxido-7,7a,8,9,10,11-hexahydro-6H-dipyrido[2,1-d:2′,3′-f][1,2,5]thiadiazepin-6-yl)methyl)-4-methylphenyl)-3-(8-methyl-3-(trifluoromethyl)-[1,2,4]triazolo[4,3-a]pyridin-7-yl)propanoic Acid]", "values": [{"measurement": "pEC50", "setting": "Homo sapiens, HEK293, 24 h", "value": 6.82}]}
{"smiles": "Cc1ccc([C@H](CC(=O)O)c2ccc3c(nnn3CC3CC3)c2C)cc1CN1CC2(CC2)N(C)c2ncccc2S1(=O)=O", "note": "(single isomer, unassigned) [Example 78, (*S)-3-(1-(Cyclopropylmethyl)-4-methyl-1H-benzo[d][1,2,3]triazol-5-yl)-3-(4-methyl-3-((5′-methyl-1′,1′-dioxido-5′H-spiro[cyclopropane-1,4′-pyrido[2,3-f][1,2,5]thiadiazepin]-2′(3′H)-yl)methyl)phenyl)propanoic Acid]", "values": [{"measurement": "pEC50", "setting": "Homo sapiens, HEK293, 24 h", "value": 8.05}]}
{"smiles": "CCn1nnc2c(C)c(C(CC(=O)O)c3ccc(C)c(CN4C[C@@H]5CCCN5c5ccccc5S4(=O)=O)c3)ccc21", "note": "(mixture of isomers) [Example 147, (R/S)-3-(3-(((S)-5,5-Dioxido-7a,8,9,10-tetrahydrobenzo[f]pyrrolo[2,1-d][1,2,5]thiadiazepin-6(7H)-yl)methyl)-4-methylphenyl)-3-(1-ethyl-4-methyl-1H-benzo[d][1,2,3]triazol-5-yl)propanoic Acid]", "values": [{"measurement": "pEC50", "setting": "Homo sapiens, HEK293, 24 h", "value": 7.72}]}
{"smiles": "Cc1ccc([C@@H](c2ccn3c(C(F)(F)F)nnc3c2C)C(C)C(=O)O)cc1CN1C[C@@H]2CCCCN2c2ncccc2S1(=O)=O", "note": "(relative stereo) [Example 131, (3*S)-3-(3-(((*S)-5,5-Dioxido-7,7a,8,9,10,11-hexahydro-6H-dipyrido[2,1-d:2′,3′-f][1,2,5]thiadiazepin-6-yl)methyl)-4-methylphenyl)-2-methyl-3-(8-methyl-3-(trifluoromethyl)-[1,2,4]triazolo[4,3-a]pyridine-7-yl)propanoic Acid]", "values": [{"measurement": "pEC50", "setting": "Homo sapiens, HEK293, 24 h", "value": 8.80}]}
{"smiles": "Cc1cnc2c(c1)S(=O)(=O)N(Cc1cc([C@H](c3ccn4c(C(F)(F)F)nnc4c3C)[C@H](C)C(=O)O)ccc1C)CC1(CC1)O2", "note": "(relative stereo) [Example 545, (2*S,3*R)-2-Methyl-3-(4-methyl-3-((8′-methyl-1′,1′-dioxidospiro[cyclopropane-1,4′-pyrido[2,3-b][1,4,5]oxathiazepin]-2′(3′H)-yl)methyl)phenyl)-3-(8-methyl-3-(trifluoromethyl)-[1,2,4]triazolo[4,3-a]pyridin-7-yl)propanoic Acid]", "values": [{"measurement": "pEC50", "setting": "Homo sapiens, HEK293, 24 h", "value": 7.30}]}
{"smiles": "CCn1nnc2c(C)c([C@@H](CC(=O)O)c3ccc(C)c(CN4C[C@H]5CCCCN5c5ncccc5S4(=O)=O)c3)ccc21", "note": "(single isomer, unassigned) [Example 145, (*S)-3-(3-(((*R)-5,5-Dioxido-7,7a,8,9,10,11-hexahydro-6H-dipyrido[2,1-d:2′,3′-f][1,2,5]thiadiazepin-6-yl)methyl)-4-methylphenyl)-3-(1-ethyl-4-methyl-1H-benzo[d][1,2,3]triazol-5-yl)propanoic Acid]", "values": [{"measurement": "pEC50", "setting": "Homo sapiens, HEK293, 24 h", "value": 8.96}]}
{"smiles": "Cc1ccc([C@H](CC(=O)O)c2ccn3c(C(F)(F)F)nnc3c2C)nc1CN1C[C@H]2CCCCN2c2ncc(Cl)cc2S1(=O)=O", "note": "(relative stereo) [Example 522, (*R)-3-(6-(((*R)-3-Chloro-5,5-dioxido-7,7a,8,9,10,11-hexahydro-6H-dipyrido[2,1-d:2′,3′-f][1,2,5]thiadiazepin-6-yl)methyl)-5-methylpyridin-2-yl)-3-(8-methyl-3-(trifluoromethyl)-[1,2,4]triazolo[4,3-a]pyridin-7-yl)propanoic Acid]", "values": [{"measurement": "pEC50", "setting": "Homo sapiens, HEK293, 24 h", "value": 8.30}]}
{"smiles": "Cc1ccc([C@H](CC(=O)O)c2ccn3c(C(F)F)nnc3c2C)cc1CN1CC2(CCOCC2)Oc2ccc(F)cc2S1(=O)=O", "note": "(single isomer, unassigned) [Example 524, (*S)-3-(3-(Difluoromethyl)-8-methyl-[1,2,4]triazolo[4,3-a]pyridin-7-yl)-3-(3-((8-fluoro-1,1-dioxido-2′,3′,5′,6′-tetrahydrospiro[benzo[b][1,4,5]oxathiazepine-4,4′-pyran]-2(3H)-yl)methyl)-4-methylphenyl)propanoic Acid]", "values": [{"measurement": "pEC50", "setting": "Homo sapiens, HEK293, 24 h", "value": 7.71}]}
{"smiles": "Cc1ccc([C@H](CC(=O)O)c2ccn3c(C(F)(F)F)nnc3c2C)cc1CN1C[C@H]2CCCCN2c2ncc(C(F)(F)F)cc2S1(=O)=O", "note": "(relative stereo) [Example 199, (*S)-3-(3-(((*R)-5,5-Dioxido-3-(trifluoromethyl)-7,7a,8,9,10,11-hexahydro-6H-dipyrido[2,1-d:2′,3′-f][1,2,5]thiadiazepin-6-yl)methyl)-4-methylphenyl)-3-(8-methyl-3-(trifluoromethyl)-[1,2,4]triazolo[4,3-a]pyridin-7-yl)propanoic Acid]", "values": [{"measurement": "pEC50", "setting": "Homo sapiens, HEK293, 24 h", "value": 8.48}]}
{"smiles": "CCn1nnc2c(C)c([C@@H](CC(=O)O)c3ccc(C)c(CN4C[C@H]5COCCN5c5ncccc5S4(=O)=O)c3)ccc21", "note": "(single isomer, unassigned) [Example 136, (*S)-3-(3-(((*S)-5,5-Dioxido-7a,8,10,11-tetrahydro-[1,4]oxazino[3,4-d]pyrido[2,3-f][1,2,5]thiadiazepin-6(7H)-yl)methyl)-4-methylphenyl)-3-(1-ethyl-4-methyl-1H-benzo[d][1,2,3]triazol-5-yl)propanoic Acid]", "values": [{"measurement": "pEC50", "setting": "Homo sapiens, HEK293, 24 h", "value": 8.08}]}
{"smiles": "Cc1ncc([C@@H](c2ccn3c(C(F)(F)F)nnc3c2C)C(C)(C)C(=O)O)cc1CN1C[C@H]2CCCCN2c2ncc(C#N)cc2S1(=O)=O", "note": "(relative stereo) [Example 654, (*R)-3-(5-(((*R)-3-Cyano-5,5-dioxido-7,7a,8,9,10,11-hexahydro-6H-dipyrido[2,1-d:2′,3′-f][1,2,5]thiadiazepin-6-yl)methyl)-6-methylpyridin-3-yl)-2,2-dimethyl-3-(8-methyl-3-(trifluoromethyl)-[1,2,4]triazolo[4,3-a]pyridin-7-yl)propanoic Acid]", "values": [{"measurement": "pEC50", "setting": "Homo sapiens, HEK293, 24 h", "value": 5.16}]}
{"smiles": "Cc1ccc([C@H](CC(=O)O)c2ccn3c(C(F)(F)F)nnc3c2C)cc1CN1CC2(CCOCC2)Oc2ccc(F)cc2S1(=O)=O", "note": "(single isomer, unassigned) [Example 415, (*S)-3-(3-((8-fluoro-1,1-dioxido-2′,3′,5′,6′-tetrahydrospiro[benzo[b][1,4,5]oxathiazepine-4,4′-pyran]-2(3H)-yl)methyl)-4-methylphenyl)-3-(8-methyl-3-(trifluoromethyl)-[1,2,4]triazolo[4,3-a]pyridin-7-yl)propanoic Acid]", "values": [{"measurement": "pEC50", "setting": "Homo sapiens, HEK293, 24 h", "value": 8.29}]}
{"smiles": "Cc1cnc2c(c1)S(=O)(=O)N(Cc1cc(C(c3ccn4c(C(F)(F)F)nnc4c3C)C(C)(C)C(=O)O)ccc1C)CC1(CC1)O2", "note": "(stereo not shown) [Example 313, 2,2-Dimethyl-3-(4-methyl-3-((8′-methyl-1′,1′-dioxidospiro[cyclopropane-1,4′-pyrido[2,3-b][1,4,5]oxathiazepin]-2′(3′H)-yl)methyl)phenyl)-3-(8-methyl-3-(trifluoromethyl)-[1,2,4]triazolo[4,3-a]pyridin-7-yl)propanoic Acid]", "values": [{"measurement": "pEC50", "setting": "Homo sapiens, HEK293, 24 h", "value": 8.96}]}
{"smiles": "Cc1ccc([C@H](CC(=O)O)c2ccn3c(C(F)(F)F)nnc3c2C)cc1CN1C[C@@H]2COCCN2c2ncccc2S1(=O)=O", "note": "(relative stereo) [Example 276, (*S)-3-(3-(((*R)-5,5-Dioxido-7a,8,10,11-tetrahydro-[1,4]oxazino[3,4-d]pyrido[2,3-f][1,2,5]thiadiazepin-6(7H)-yl)methyl)-4-methylphenyl)-3-(8-methyl-3-(trifluoromethyl)-[1,2,4]triazolo[4,3-a]pyridin-7-yl)propanoic Acid]", "values": [{"measurement": "pEC50", "setting": "24 hours", "value": 6.95}]}
{"smiles": "Cc1cnc2c(c1)S(=O)(=O)N(Cc1nc([C@@H](CC(=O)O)c3ccn4c(C(F)(F)F)nnc4c3C)ccc1C)C[C@@H]1CCCCN21", "note": "(relative stereo) [Example 488, (*S)-3-(8-Methyl-3-(trifluoromethyl)-[1,2,4]triazolo[4,3-a]pyridin-7-yl)-3-(5-methyl-6-(((*S)-3-methyl-5,5-dioxido-7,7a,8,9,10,11-hexahydro-6H-dipyrido[2,1-d:2′,3′-f][1,2,5]thiadiazepin-6-yl)methyl)pyridin-2-yl)propanoic Acid]", "values": [{"measurement": "pEC50", "setting": "Homo sapiens, HEK293, 24 h", "value": 7.92}]}
{"smiles": "CCn1nnc2c(C)c([C@H](c3ccc(C)c(CN4CC5(CCOCC5)Oc5ncc(C)cc5S4(=O)=O)c3)C(C)(C)C(=O)O)ccc21", "note": "(single isomer, unassigned) [Example 421, (*R)-3-(1-ethyl-4-methyl-1H-benzo[d][1,2,3]triazol-5-yl)-2,2-dimethyl-3-(4-methyl-3-((8′-methyl-1′,1′-dioxido-2,3,5,6-tetrahydrospiro[pyran-4,4′-pyrido[2,3-b][1,4,5]oxathiazepin]-2′(3′H)-yl)methyl)phenyl)propanoic Acid]", "values": [{"measurement": "pEC50", "setting": "Homo sapiens, HEK293, 24 h", "value": 9.62}]}
{"smiles": "Cc1ccc([C@H](CC(=O)O)c2ccn3c(C(F)F)nnc3c2C)cc1CN1C[C@@H]2CCCCN2c2ncc(F)cc2S1(=O)=O", "note": "(relative stereo) [Example 511, (*S)-3-(3-(Difluoromethyl)-8-methyl-[1,2,4]triazolo[4,3-a]pyridin-7-yl)-3-(3-(((*S)-3-fluoro-5,5-dioxido-7,7a,8,9,10,11-hexahydro-6H-dipyrido[2,1-d:2′,3′-f][1,2,5]thiadiazepin-6-yl)methyl)-4-methylphenyl)propanoic Acid]", "values": [{"measurement": "pEC50", "setting": "Homo sapiens, HEK293, 24 h", "value": 8.82}]}
{"smiles": "Cc1ccc([C@H](c2ccn3c(C(F)(F)F)nnc3c2C)C(C)(C)C(=O)O)cc1CN1CC2(CCOCC2)Oc2nc(CCC(=O)NCCOCCN)ccc2S1(=O)=O", "note": "(single isomer, unassigned) [Example 344, (*R)-3-(3-((7′-(3-((2-(2-Aminoethoxy)ethyl)amino)-3-oxopropyl)-1′,1′-dioxido-2,3,5,6-tetrahydrospiro[pyran-4,4′-pyrido[2,3-b][1,4,5]oxathiazepin]-2′(3′H)-yl)methyl)-4-methylphenyl)-2,2-dimethyl-3-(8-methyl-3-(trifluoromethyl)-[1,2,4]triazolo[4,3-a]pyridin-7-yl)propanoic Acid]", "values": [{"measurement": "pEC50", "setting": "Homo sapiens, HEK293, 24 h", "value": 5.31}]}
{"smiles": "Cc1ccc([C@H](CC(=O)O)c2ccn3c(C(F)F)nnc3c2C)cc1CN1C[C@H]2CCCCN2c2ncc(F)cc2S1(=O)=O", "note": "(relative stereo) [Example 512, (*S)-3-(3-(Difluoromethyl)-8-methyl-[1,2,4]triazolo[4,3-a]pyridin-7-yl)-3-(3-(((*R)-3-fluoro-5,5-dioxido-7,7a,8,9,10,11-hexahydro-6H-dipyrido[2,1-d:2′,3′-f][1,2,5]thiadiazepin-6-yl)methyl)-4-methylphenyl)propanoic Acid]", "values": [{"measurement": "pEC50", "setting": "Homo sapiens, HEK293, 24 h", "value": 8.49}]}
